Assay results published in patent publication US10105357B2, “Indication of antibiotic drugs for preparation of cancer inhibition pharmaceutical composition” (LAUNX BIOMEDICAL CO., LTD., priority 2014, dated 2018).
Structures can show the parent of a compound that is named as a salt. Where two headings read alike, the source gives them in different places.

Tests used:
[1] = test system: TSGH-8301 (Urinary Bladder Carcinoma); assay: Cell viability analysis, bladder cancer TSGH-8301; format: cell-based, human; conditions: Homo sapiens, 72 h
[2] = test system: C-33A (Cervical carcinoma); assay: Cell viability analysis, cervical cancer C-33A; format: cell-based, human; conditions: Homo sapiens, C-33-A, 72 h, read-out: The results of antibiotic drug inhibiting cancer cell lines (cell viability analysis), C-33A
[3] = test system: PC3 (p53−) (Prostate Adenocarcinoma); assay: Cell viability analysis, prostate cancer PC3; format: cell-based, human; conditions: Homo sapiens, 72 h
[4] = test system: A375 (Amelanotic Melanoma); assay: Cell viability analysis, skin cancer A375; format: cell-based, human; conditions: Homo sapiens, A-375, 72 h
[5] = test system: A549 (Lung Adenocarcinoma); assay: Cell viability analysis, lung cancer A549; format: cell-based, human; conditions: Homo sapiens, A549, 72 h
[6] = test system: BCC (basal cell carcinoma); assay: Cell viability analysis, skin cancer BCC; format: cell-based, human; conditions: Homo sapiens, 72 h, read-out: The results of antibiotic drug inhibiting cancer cell lines (cell viability analysis), BCC
[7] = test system: cancer cell lines; assay: Cell viability analysis (WST-1) on cancer cell lines; format: cell-based, human; conditions: drug 10 μM, 72 hours, WST-1; Table 3
[8] = test system: NIH: OVCAR-3; assay: Cell viability analysis, ovarian cancer NIH: OVCAR-3; format: cell-based, human; conditions: Homo sapiens, OVCAR-3, 72 h, read-out: The results of antibiotic drug inhibiting cancer cell lines (cell viability analysis), NIH-OVCAR-3
[9] = test system: AGS (Gastric Adenocarcinoma); assay: Cell viability analysis, gastric cancer AGS; format: cell-based, human; conditions: Homo sapiens, 72 h
[10] = test system: MKN-45 (Gastric Adenocarcinoma); assay: Cell viability analysis, gastric cancer MKN-45; format: cell-based, human; conditions: Homo sapiens, MKN-45, 72 h
[11] = test system: MCF7 (Mammary Gland, Adenocarcinoma); assay: Cell viability analysis, breast cancer MCF7; format: cell-based, human; conditions: Homo sapiens, MCF7, 72 h
[12] = test system: MDA-MB-231 (Mammary Gland, Adenocarcinoma); assay: Cell viability analysis, breast cancer MDA-MB-231; format: cell-based, human; conditions: Homo sapiens, MDA-MB-231, 72 h, read-out: The results of antibiotic drug inhibiting cancer cell lines (cell viability analysis), MDA-MB231
[13] = test system: SAS (Tongue squamous cell carcinoma); assay: Cell viability analysis, tongue cancer SAS; format: cell-based, human; conditions: Homo sapiens, 72 h, read-out: The results of antibiotic drug inhibiting cancer cell lines (cell viability analysis), SAS
[14] = test system: LoVo (Colorectal Adenocarcinoma); assay: Cell viability analysis, colon cancer LoVo; format: cell-based, human; conditions: Homo sapiens, LoVo, 72 h
[15] = test system: HI650 (Lung Adenocarcinoma); assay: Cell viability analysis, lung cancer HI650; format: cell-based, human; conditions: Homo sapiens, NCI-H1650, 72 h
[16] = test system: HepG2 (Hepatocellular Carcinoma); assay: Cell viability analysis, hepatic cancer HepG2; format: cell-based, human; conditions: Homo sapiens, HepG2, 72 h
[17] = test system: HeLa (Cervix Adenocarcinoma); assay: Cell viability analysis, cervical cancer HeLa; format: cell-based, human; conditions: Homo sapiens, HeLa, 72 h
[18] = test system: BxPC-3; assay: Cell viability analysis, pancreatic cancer BxPC-3; format: cell-based, human; conditions: Homo sapiens, BXPC-3, 72 h, read-out: The results of antibiotic drug inhibiting cancer cell lines (cell viability analysis), BxPC-3
[19] = test system: AsPC-1; assay: Cell viability analysis, pancreatic cancer AsPC-1; format: cell-based, human; conditions: Homo sapiens, ASPC1, 72 h, read-out: The results of antibiotic drug inhibiting cancer cell lines (cell viability analysis), AsPC-1
[20] = test system: Hep3B (hepatocellular carcinoma); assay: Cell viability analysis, hepatic cancer Hep3B; format: cell-based, human; conditions: Homo sapiens, Hep3B, 72 h, read-out: The results of antibiotic drug inhibiting cancer cell lines (cell viability analysis), Hep3B
[21] = test system: HCT116 (p53+) (Colorectal Carcinoma)
[22] = test system: HL-60 (Acute Promyelocytic Leukemia); assay: Cell viability analysis, leukemia HL-60; format: cell-based, human; conditions: Homo sapiens, HL-60, 72 h, read-out: cell viability (survival rate), HL-60, drug 10 μM, 72 hours, WST-1, OD450 nm
[23] = test system: 786-O (Renal adenocarcinoma); assay: Cell viability analysis, renal cancer 786-O; format: cell-based, human; conditions: Homo sapiens, 786-0, 72 h, read-out: The results of antibiotic drug inhibiting cancer cell lines (cell viability analysis), 786-O
[24] = test system: TOV-21G; assay: Cell viability analysis, ovarian cancer TOV-21G; format: cell-based, human; conditions: Homo sapiens, TOV21G, 72 h, read-out: The results of antibiotic drug inhibiting cancer cell lines (cell viability analysis), TOV-21G
[25] = test system: U-2OS; assay: Cell viability analysis, osteosarcoma U-2OS; format: cell-based, human; conditions: Homo sapiens, U2OS, 72 h, read-out: The results of antibiotic drug inhibiting cancer cell lines (cell viability analysis), U2OS
[26] = test system: T24; assay: Cell viability analysis, bladder cancer T24; format: cell-based, human; conditions: Homo sapiens, T-24, 72 h, read-out: The results of antibiotic drug inhibiting cancer cell lines (cell viability analysis), T24
[27] = read-out: The results of antibiotic drug inhibiting cancer cell lines (cell viability analysis), TSGH-8301, TSGH-8301, repeated experiment
[28] = read-out: cell viability (survival rate), TSGH, drug 10 μM, 72 hours, WST-1, OD450 nm
[29] = read-out: The results of antibiotic drug inhibiting cancer cell lines (cell viability analysis), PC-3, PC-3, repeated experiment
[30] = read-out: cell viability (survival rate), PC3, drug 10 μM, 72 hours, WST-1, OD450 nm
[31] = read-out: The results of antibiotic drug inhibiting cancer cell lines (cell viability analysis), A375, A375, repeated experiment
[32] = read-out: cell viability (survival rate), A375, drug 10 μM, 72 hours, WST-1, OD450 nm
[33] = read-out: The results of antibiotic drug inhibiting cancer cell lines (cell viability analysis), A549, A549, repeated experiment
[34] = read-out: cell viability (survival rate), A549, drug 10 μM, 72 hours, WST-1, OD450 nm
[35] = read-out: The results of antibiotic drug inhibiting cancer cell lines (cell viability analysis), AGS, repeated experiment
[36] = read-out: cell viability (survival rate), AGS, drug 10 μM, 72 hours, WST-1, OD450 nm
[37] = read-out: The results of antibiotic drug inhibiting cancer cell lines (cell viability analysis), MKN-45, MKN-45, repeated experiment
[38] = read-out: cell viability (survival rate), MKN-45, drug 10 μM, 72 hours, WST-1, OD450 nm
[39] = read-out: The results of antibiotic drug inhibiting cancer cell lines (cell viability analysis), MCF-7, MCF-7, repeated experiment
[40] = read-out: cell viability (survival rate), MCF7, drug 10 μM, 72 hours, WST-1, OD450 nm
[41] = read-out: The results of antibiotic drug inhibiting cancer cell lines (cell viability analysis), LoVo, repeated experiment
[42] = read-out: cell viability (survival rate), LoVo, drug 10 μM, 72 hours, WST-1, OD450 nm
[43] = read-out: The results of antibiotic drug inhibiting cancer cell lines (cell viability analysis), H1650, H1650, repeated experiment
[44] = read-out: cell viability (survival rate), H1650, drug 10 μM, 72 hours, WST-1, OD450 nm
[45] = read-out: The results of antibiotic drug inhibiting cancer cell lines (cell viability analysis), HepG2, HepG2, repeated experiment
[46] = read-out: cell viability (survival rate), HepG2, drug 10 μM, 72 hours, WST-1, OD450 nm
[47] = read-out: The results of antibiotic drug inhibiting cancer cell lines (cell viability analysis), HeLa, repeated experiment
[48] = read-out: cell viability (survival rate), HeLa, drug 10 μM, 72 hours, WST-1, OD450 nm

Compound	viability at 10 µM [1, 27] [%]	viability at 10 µM [2] [%]	viability at 10 µM [3, 29] [%]	viability at 10 µM [5, 33] [%]	viability at 10 µM [6] [%]	inhibition effect on different cancer cell lines [7]	viability at 10 µM [9, 35] [%]	viability at 10 µM [10, 37] [%]	viability at 10 µM [11, 39] [%]	viability at 10 µM [12] [%]	viability at 10 µM [13] [%]	viability at 10 µM [14, 41] [%]	viability at 10 µM [15, 43] [%]	viability at 10 µM [17, 47] [%]	viability at 10 µM [18] [%]	viability at 10 µM [19] [%]	viability at 10 µM [20] [%]	viability [21] [%]	viability at 10 µM [23] [%]	viability at 10 µM [24] [%]	further results
CCOc1ccc(NC(C)=O)cc1 [Phenacetin]	128	114	133	87.6	119	significant inhibition effect	122	123	92.9	91.7	81.9	87.7	90.1	110	73.2	90.5	106	102	92	95.8	viability at 10 µM [1, 28]: 23.3%; viability at 10 µM [3, 30]: 40.4%; viability at 10 µM [4, 31]: 106%; viability at 10 µM [4, 32]: 54.1%; viability at 10 µM [5, 34]: 34.4%; viability at 10 µM [8]: 105%; viability at 10 µM [9, 36]: 40.4%; viability at 10 µM [10, 38]: 75.1%; viability at 10 µM [11, 40]: 62.7%; viability at 10 µM [14, 42]: 48.5%; viability at 10 µM [15, 44]: 39.1%; viability at 10 µM [16, 45]: 121%; viability at 10 µM [16, 46]: 72.5%; viability at 10 µM [17, 48]: 57.2%; viability at 10 µM [22]: 95.3%; viability at 10 µM [25]: 63.9%
CN(C)CCCN1c2ccccc2CCc2ccc(Cl)cc21 [Clomipramine hydrochloride (Anafranil), Clomipramine hydrochloride]	139	118	91.2	86.4	124	significant inhibition effect	122	125	65.9	117	51.6	65.7	103	113	78.3	77.2	135	137	80.3	118	viability at 10 µM [26]: 109%; viability at 10 µM [25]: 58.4%
CC(=O)NC[C@H]1CN(c2ccc(N3CCOCC3)c(F)c2)C(=O)O1 [Linezolid (Zyvox), Linezolid]	99.7	132	115	82.1	67.2	significant inhibition effect	104	137	73.1	96.2	84	89.5	95.6	89.2	95.6	92.6	99.9	107	98.6	78.2	viability at 10 µM [1, 28]: 58.2%; viability at 10 µM [3, 30]: 67%; viability at 10 µM [4, 31]: 82.8%; viability at 10 µM [4, 32]: 57.6%; viability at 10 µM [5, 34]: 40.2%; viability at 10 µM [8]: 110%; viability at 10 µM [9, 36]: 70.8%; viability at 10 µM [10, 38]: 65.9%; viability at 10 µM [11, 40]: 66.3%; viability at 10 µM [14, 42]: 91%; viability at 10 µM [15, 44]: 51.3%; viability at 10 µM [16, 45]: 107%; viability at 10 µM [16, 46]: 91.3%; viability at 10 µM [17, 48]: 93.7%; viability at 10 µM [22]: 129%; viability at 10 µM [25]: 99.8%
